Data reported in patent US7759399B2, “Pharmaceutical compositions” (priority 2002, dated 2010).
Like-named read-outs stand apart in the source and are kept apart here.

How the values were obtained:
NF-κB [1] = assay: NF-κB-dependent luciferase reporter gene assay, HeLa κB-transformed cells, TPA stimulated; format: cell-based; conditions: 8 h treatment, TPA 25 ng/ml 2 h after exposure, read-out: NF-κB, IC50 (concentration at which the compound halved the NF-κB activity)
Protocol: (§1) Method: HeLa cell clone 13B, stably transfected with a luciferase reporter plasmid controlled by the human hsp70 promoter, and HeLa κB-transformed cells, stably transfected with a luciferase reporter plasmid controlled by a synthetic NF-κB-STM construct, were maintained in DMEM medium supplemented with 10% FBS, L-glutamine (2 mM) and G418 (250 μg/ml) at 37° C. in a 5% CO2 humidified atmosphere.
(§2) Cells were seeded at a density of 4×10^4 cells/well in 96-well plates. After 18-20 h, the medium was removed and cells were treated for 8 h with the test compounds (100 μl) at the appropriate dilutions in serum-free medium. For the NF-κB-dependent reporter gene assay, cells were stimulated with TPA (25 ng/ml) 2 h after exposure to the compounds.
(§3) After incubation, the medium was removed and cells were lysed in 10 μl of lysis buffer. The luciferase activity was determined by adding 100 μl of substrate and measuring the release of light using a Victor 1420 microplate reader (Wallac, Finland).
(§4) The fragment Kpn I-BamH I from the pGL3 basic vector containing the luciferase gene (PROMEGA) was inserted in the pcDNA3 vector (INVITROGEN) digested with Bgl II-KpnI. (This digestion removes the CMV-promoter from pcDNA3.) The resulting new vector was digested with Kpn I-Hind III and a promoter containing a ‘5xNF-κB binding sites—TATA box’ sequence was inserted upstream of the luciferase gene. This vector has been named STM.
(§5) To obtain stable HeLa cell lines expressing the luciferase gene under the control of NF-κB, HeLa cells were transfected (using lipofectamine plus GIBCO) with the STM-Pvu I linearized vector, and selected for 20 days with G418 (800 μg/ml). After selection, the resistant HeLa cell pool was controlled (in quadruplicate samples) for luciferase activity after stimulation with TNFα, IL-1 and TPA.
(§6) The AC200/μM for HSF is the concentration at which the tested compound doubled the HSF activity in this assay. The IC50/μM for NF-κB is the concentration at which the tested compound halved the NF-κB activity in this assay.

uninfected 37RC cells [2] = conditions: monkey
in vitro = format: cell-based; conditions: 37RC cells, 24 h treatment; read-out: LC50 (50% lethal dose/concentration), Neutral Red
Protocol: (§7) Cell viability was determined using the Neutral Red assay. 37RC cells were seeded at density of 6×10^4 cells/well in 24-well plates and incubated for 24 h. Confluent 37RC monolayers were treated with the test compounds at different dilutions for 24 h at 37° C. After incubation, the medium was removed and the cells were incubated with RPMI medium containing 40 μg/ml Neutral Red dye (500 μl/well). After 2 h at 37° C., the monolayers were washed with phosphate-buffered saline (PBS) and then with a solution containing 1% CaCl2 and 0.5% formaldehyde. After washing, a solution containing 1% acetic acid/50% ethanol was added to the monolayers (250 μl/well). After 10 min at room temperature, the absorbance was determined with a microplate reader (Victor 1420, Wallac) at 540 nm.

HSF = HSF luciferase reporter assay, HeLa cell clone 13B (human hsp70 promoter); format: cell-based; conditions: 8 h, HeLa clone 13B, 8 h treatment, serum-free medium, read-out: HSF, AC200 (concentration at which the compound doubled the HSF activity)
Protocol: as §1, §2, §3, §6

Sendai virus = Sendai virus replication in 37RC cells (virus yield by HAU titration); format: cell-based; conditions: Respirovirus muris, 5 HAU/10^5 cells, virus yield at 24 hours after infection, read-out: ID50 (50% inhibitory dose/concentration), Sendai virus yield
NF-κB [3] = assay: EMSA of NF-κB DNA-binding activity in TPA-stimulated Jurkat T cells; format: cell-based, Human; conditions: Jurkat T cells treated 1 hour, then TPA 25 ng/ml, extracts after 3 hours; FIGS. 1(b)-6(b)
Protocol: Methods: Human lymphoblastoid Jurkat T cells were grown at 37° C. in a 5% CO2 atmosphere in RPM1 1640 medium (GIBCO BRL, Gaithersburg, Md.) supplemented with 10% fetal calf serum (FCS, Hyclone Europe Ltd, UK) 2 mM glutamine and antibiotics according to the method described by A. Rossi et al. (Proc. Natl. Acad. Sci. USA 94: 746-750, 1997). The test compounds were stored as a 100% ethanolic stock solution (100 mM) or in DMSO (100 mM) and diluted to the appropriate concentration in culture medium at the time of use. Cells were treated with different concentrations of test compound for 1 hour and then stimulated with 12-O-tetradecanoylphorbol-13-acetate (TPA, 25 ng/ml), which is a strong inducer of NF-κB. Control cells received an equal amount of control diluent. After 3 hours whole-cell extracts were prepared and subjected to analysis of DNA-binding activity by EMSA (Electrophoretic Mobility Shift Assay) for detection of HSF or NF-κB activation, according to the method described by A. Rossi et al. (Proc. Natl. Acad. Sci. USA 94: 746-750, 1997).
Specificity of protein-DNA complexes was verified by immunoreactivity with polyclonal antibodies specific for p65 (Rel A) or for HSF-1, for NF-κB and HSF respectively. Quantitative evaluation of NF-κB and HSF-DNA complex formation was determined by Molecular Dynamics Phosphorimager (MDP) analysis and was expressed in arbitrary units, as described in A. Rossi et al. (J. Biol. Chem. 273: 16446-16452, 1998). The results from representative experiments are shown in FIGS. 1(b), 2(b), 3(b), 4(b), 5 and 6(b) for compounds CTM-50, CTM-49, CTM-36, CTM-30, CTC-130 and CTC-109, as identified above.

NF-κB [4] = assay: Luciferase activity of G418-resistant HeLa cell pool transfected with NF-κB-LUC after stimulation; format: cell-based; conditions: NF-κB-LUC (STM vector), quadruplicate samples, control 1369±149
Description: as §4, §5

37RC cells = assay: in vitro; format: cell-based; conditions: 24 h treatment, read-out: LC50 (50% lethal dose/concentration), Neutral Red
Protocol: as §7

uninfected 37RC cells [5] = assay: Toxicity to uninfected cells, determined visually by microscopy (TD100)
[6] = doses from 30 μg/kg/min; cited from earlier work
HSF1 = conditions: concentration of 125-500 μM; cited from earlier work
NF-κB [7] = conditions: same concentration (125-500 μM); cited from earlier work
[8] = Alamar Blue cytotoxicity assay; format: cell-based; conditions: human
Protocol: HeLa cells were plated in 96-well microtiter plates in 100 μl culture medium (4×10^4/well). After 20 hours, the cells were exposed to the test compounds at different dilutions and incubated for the next 8 h at 37° C. in a 5% CO2 humidified atmosphere. After 6 h incubation, the Alamar Blue was added in an amount equal to 10% of the culture volume (10 μl). Two hours after the addition of the Alamar Blue, the fluorescence was measured using a Victor 1420 microplate reader.
The LC50/μM is the concentration at which the tested compound killed half the cells in this assay.

Molecule	IC50 (NF-κB [1]; Homo sapiens, HeLa)	TD100 (dose or concentration at which the compound was 100% toxic to uninfected cells) (uninfected 37RC cells [2])	CC50 at 24 h (in vitro)	EC (2-fold) (HSF)	IC50 (Sendai virus; 24 h)	NF-κB-DNA complex formation (EMSA), result in words (NF-κB [3])	IC50 (Sendai virus)	also measured
CC(C)(C)C(=O)OC1[C@@H](Sc2ccc3ccccc3c2)CC(=O)C1(C)C (stereo in doubt) [CTM-191, 2,2-dimethylpropionic acid (1R,5S)-2,2-dimethyl-5-(naphthalen-2-ylsulfanyl)-3-oxocyclopentyl ester]	25 µM	50 µM	24 µM	18 µM	4 µM			
COC(=O)[C@H](CSC1C=C(C(SC[C@H](NC(=O)OC(C)(C)C)C(=O)OC)C(C)C)C(=O)C1)NC(=O)OC(C)(C)C (stereo partly shown) [CTC-130]						inhibitors of NF-κB		
CC(C)(C)C(=O)OC1[C@H](Sc2ccc3ccccc3c2)CC(=O)C1(C)C (stereo in doubt) [CTM-193, 2,2-dimethylpropionic acid (1S,5R)-2,2-dimethyl-5-(naphthalen-2-ylsulfanyl)-3-oxocyclopentyl ester]	32 µM	50 µM	23 µM	26 µM	3 µM			
TNFα								luciferase activity (NF-κB [4]): 6111±1231
CC(C)(C)C(=O)O[C@H]1[C@H](Sc2ccc3ccccc3c2)CC(=O)C1(C)C (stereo in doubt) [CTM-192, 2,2-dimethylpropionic acid (1R,5R)-2,2-dimethyl-5-(naphthalen-2-ylsulfanyl)-3-oxocyclopentyl ester]		50 µM						IC50 (NF-κB [1]): 28 µM; CC50 (37RC cells): 22 µM
COC(=O)[C@H](CSC1CC(=O)C[C@@H]1O[Si](C)(C)C(C)(C)C)NC(=O)OC(C)(C)C (stereo partly shown) [CTM-36]						inhibitors of NF-κB	4 µM	TD100 (dose or concentration at which the compound was 100% toxic to uninfected cells) (uninfected 37RC cells [5]): >500 µM
CCCCC[C@H](O)/C=C/[C@H]1[C@H](O)CC(=O)[C@@H]1CCCCCCC(=O)O [Prostaglandin E1]								effect on blood pressure [6]: dose-dependant falls in blood pressure
COC(=O)[C@H](CSC1C=CC(=O)C1)NC(=O)OC(C)(C)C (stereo partly shown) [CTC-109]		500 µM			3 µM	inhibitors of NF-κB		
COC(=O)[C@H](CSC1CCC(=O)C1)NC(=O)OC(C)(C)C (stereo partly shown) [CTM-49]		>500 µM			20 µM	inhibitors of NF-κB		
CCCCC[C@H](O)/C=C/[C@H]1C=CC(=O)[C@@H]1CCCCCCC(=O)O [Prostaglandin A1]								effect on blood pressure [6]: dose-dependant falls in blood pressure
O=C1C=CCC1 [CTC-1, cyclopent-2-en-1-one, reference compound]		>500 µM					90 µM	HSF1 activation, result in words (HSF1): able to activate HSF1; block of NF-κB activation by chemical or physiological inducers, result in words (NF-κB [7]): able to block NF-κB activation
CC(=O)Nc1ccc(S[C@H]2CC(=O)C[C@@H]2O[Si](C)(C)C(C)(C)C)cc1 [CTM-81]	31 µM		17 µM	28 µM			1 µM	TD100 (dose or concentration at which the compound was 100% toxic to uninfected cells) (uninfected 37RC cells [5]): 50 µM; CC50 at 8 h [8]: 181 µM
CC(=O)N[C@@H](CS[C@H]1CC(=O)C[C@@H]1O[Si](C)(C)C(C)(C)C)C(=O)OC(C)(C)C [CTM-106]	> 100 µM		28 µM	26 µM			4 µM	TD100 (dose or concentration at which the compound was 100% toxic to uninfected cells) (uninfected 37RC cells [5]): 50 µM; CC50 at 8 h [8]: 536 µM
COC(=O)[C@H](CSC1=CC(=O)CC1)NC(=O)OC(C)(C)C [CTM-50]		>500 µM			10 µM	inhibitors of NF-κB		
CCCCCCCCCCCCCC(=O)O[C@@H]1[C@@H](C)[C@@]2(O)[C@@H](C=C(CO)C[C@]3(O)C(=O)C(C)=C[C@@H]23)[C@@H]2C(C)(C)[C@]12OC(C)=O [TPA, 12-O-tetradecanoylphorbol-13-acetate]								luciferase activity (NF-κB [4]): 7181±444
COc1ccc(S[C@H]2CC(=O)C[C@@H]2O[Si](C)(C)C(C)(C)C)cc1 [CTM-169]	38 µM		22 µM	26 µM			1.5 µM	TD100 (dose or concentration at which the compound was 100% toxic to uninfected cells) (uninfected 37RC cells [5]): 50 µM; CC50 at 8 h [8]: > 800 µM
